Results on three compounds are retold here after US9249128B2 (priority 2010, dated 2016).

As usually defined, the IC50 is the concentration that inhibits the measured activity by half.

Assay [1] deals with T1, AChE (Mus musculus, UniProt P21836).
T1 construct: 20 μg of cell lysate or mouse brain membrane proteome; from tissue; host or cells: mouse brain (membrane proteome)
T1 sequence (P21836 32-614): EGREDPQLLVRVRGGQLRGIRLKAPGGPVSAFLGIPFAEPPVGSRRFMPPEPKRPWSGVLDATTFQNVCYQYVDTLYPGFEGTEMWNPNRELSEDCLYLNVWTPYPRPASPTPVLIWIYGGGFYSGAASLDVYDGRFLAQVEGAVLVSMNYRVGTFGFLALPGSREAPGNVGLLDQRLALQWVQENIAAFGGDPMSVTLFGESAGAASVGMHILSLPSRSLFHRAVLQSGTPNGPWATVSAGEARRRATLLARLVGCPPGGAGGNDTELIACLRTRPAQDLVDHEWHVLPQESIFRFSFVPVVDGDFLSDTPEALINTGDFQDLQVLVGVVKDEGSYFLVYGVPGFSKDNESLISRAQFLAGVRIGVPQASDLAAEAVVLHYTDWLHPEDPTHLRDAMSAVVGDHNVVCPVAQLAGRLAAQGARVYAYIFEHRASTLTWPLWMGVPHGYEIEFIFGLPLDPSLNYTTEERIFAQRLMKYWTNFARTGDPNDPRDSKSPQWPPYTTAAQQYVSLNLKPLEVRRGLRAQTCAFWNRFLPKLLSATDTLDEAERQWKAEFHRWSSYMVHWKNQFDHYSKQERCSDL
Put plainly: AChE activity assay with acetylthiocholine in mouse brain proteome. Format: biochemical. The settings on record: acetylthiocholine hydrolysis in mouse brain membrane proteome. On the procedure: AChE activity was measured using a method similar to that described previously (Ellman et al., 1961). Briefly, 50 μL of 10 mM acetylthiocholine was added to 200 μL of PBS containing 2 mM DTNB and 20 μg of cell lysate or mouse brain membrane proteome. Absorbance was measured at 412 nm over 5 min, and the rate of product accumulation was calculated from the slope of the absorbance over time. For assays involving preincubation with inhibitors, the reactions were prepared without acetylthiocholine and JW480 was incubated at the indicated concentration for 30 min at 37° C. Acetylthiocholine was then added and the assay was carried out exactly as described above.

In assay [2] the target is T2, KIAA1363 (Mus musculus, UniProt Q8BLF1).
T2 construct: ABPP analysis of KIAA1363 activity in mouse brain membrane proteome; from tissue; host or cells: mouse brain (membrane fraction)
T2 sequence (Q8BLF1 1-408): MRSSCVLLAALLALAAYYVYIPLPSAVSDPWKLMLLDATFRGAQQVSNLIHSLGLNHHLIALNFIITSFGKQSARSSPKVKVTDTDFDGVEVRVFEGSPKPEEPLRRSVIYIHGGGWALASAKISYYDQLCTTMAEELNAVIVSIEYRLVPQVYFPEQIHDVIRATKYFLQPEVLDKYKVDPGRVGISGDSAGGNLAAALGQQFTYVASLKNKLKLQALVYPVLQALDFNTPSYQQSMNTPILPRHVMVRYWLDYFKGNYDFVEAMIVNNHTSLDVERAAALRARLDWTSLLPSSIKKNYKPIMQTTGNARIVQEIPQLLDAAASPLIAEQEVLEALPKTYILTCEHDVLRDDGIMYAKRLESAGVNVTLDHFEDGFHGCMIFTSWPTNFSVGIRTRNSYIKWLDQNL
Briefly: Gel-based competitive ABPP of KIAA1363 in mouse brain membrane proteome (FP-rhodamine). Format: biochemical. The procedure: In various embodiments, the invention provides a method of inhibiting a serine hydrolase, comprising contacting the hydrolase with a compound of formula (I), e.g., a compound selected from set of compounds shown in Table 1, below. […] IC50 values were derived from ABPP analysis of KIAA1363 activity in mouse brain membrane proteome and are averages of three replicates. Inhibitors were added to the proteome for 30 min before addition of FP-rhodamine (1 μM, 30 min).
Tissues were Dounce-homogenized in PBS, pH 7.4, followed by a low-speed spin (1,400 g, 5 min) to remove debris. The supernatant was then subjected to centrifugation (100,000×g, 45 min) to provide the cytosolic fraction in the supernatant and the unsoluble fraction as a pellet. The pellet was washed and resuspended in PBS buffer by sonication. Total protein concentration in each fraction was determined using a protein assay kit (Bio-Rad). Samples were stored at −80° C. until use.
(§1) For ABPP experiments, cell lysate and tissue proteomes were treated with 1 μM FP-rhodamine for 30 min at room temperature (50 μL total reaction volume) as described previously (Nomura et al., 2010). Reactions were quenched with one volume of standard 4×SDS/PAGE loading buffer (reducing), separated by SDS/PAGE (10% acrylamide), and visualized in-gel with a Hitachi FMBio IIe flatbed fluorescence scanner (MiraiBio). Inhibitors were preincubated prior (30 min or 4 h at 37° C. in vitro or in situ, respectively) to the addition of FP-rhodamine.

For assay [3], the target named is T3, HSL (Mus musculus, UniProt P54310).
T3 construct: ABPP analysis of HSL from a rosiglitazone-differentiated 3T3-10T1/2 adipocyte proteome; endogenous in cells; host or cells: rosiglitazone-differentiated 3T3-10T1/2 adipocytes
T3 sequence (P54310 1-759): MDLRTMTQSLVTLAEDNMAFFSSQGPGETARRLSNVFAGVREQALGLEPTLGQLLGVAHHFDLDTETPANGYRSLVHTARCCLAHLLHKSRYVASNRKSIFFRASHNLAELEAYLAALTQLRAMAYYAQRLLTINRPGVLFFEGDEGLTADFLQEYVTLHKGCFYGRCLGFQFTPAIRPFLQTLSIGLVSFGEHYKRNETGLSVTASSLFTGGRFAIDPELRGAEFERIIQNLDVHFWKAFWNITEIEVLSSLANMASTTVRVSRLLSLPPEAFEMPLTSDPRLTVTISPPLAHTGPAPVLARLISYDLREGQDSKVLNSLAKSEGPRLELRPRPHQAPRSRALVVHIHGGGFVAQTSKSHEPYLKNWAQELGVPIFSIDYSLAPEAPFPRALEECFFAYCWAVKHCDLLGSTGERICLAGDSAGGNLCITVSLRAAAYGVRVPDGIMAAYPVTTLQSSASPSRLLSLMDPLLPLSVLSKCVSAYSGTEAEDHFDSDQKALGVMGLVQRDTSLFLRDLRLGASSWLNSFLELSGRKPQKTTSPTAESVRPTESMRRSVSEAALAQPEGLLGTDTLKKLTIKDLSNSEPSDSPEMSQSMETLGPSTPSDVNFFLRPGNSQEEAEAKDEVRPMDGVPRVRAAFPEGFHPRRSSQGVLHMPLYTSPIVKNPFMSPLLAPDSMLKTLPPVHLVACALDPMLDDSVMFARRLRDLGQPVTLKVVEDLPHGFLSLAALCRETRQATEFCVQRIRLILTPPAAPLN
Briefly: Competitive ABPP of HSL in rosiglitazone-differentiated 3T3-10T1/2 adipocyte proteome. Format: biochemical. On the procedure:
as §1

Assay [4] concerns the target T4, KIAA1363 (Homo sapiens, UniProt Q6PIU2).
T4 sequence (Q6PIU2 1-408): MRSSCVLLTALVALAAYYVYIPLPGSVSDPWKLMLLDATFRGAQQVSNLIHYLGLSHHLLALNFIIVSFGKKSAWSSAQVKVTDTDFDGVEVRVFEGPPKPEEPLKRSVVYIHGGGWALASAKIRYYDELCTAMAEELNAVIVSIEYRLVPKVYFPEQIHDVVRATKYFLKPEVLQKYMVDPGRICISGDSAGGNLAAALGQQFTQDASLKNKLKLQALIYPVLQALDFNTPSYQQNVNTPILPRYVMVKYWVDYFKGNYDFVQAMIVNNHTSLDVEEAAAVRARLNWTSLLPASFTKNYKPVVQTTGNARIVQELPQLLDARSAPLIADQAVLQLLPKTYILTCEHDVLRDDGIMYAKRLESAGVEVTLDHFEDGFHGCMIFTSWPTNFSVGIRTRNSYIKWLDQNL
Briefly: Inhibition of FP-rhodamine labeling of KIAA1363 by JW551 (FIG. 17). Format: biochemical. The settings on record: selective over other serine hydrolase enzymes.

Assay [5] has as its target T4, KIAA1363. Briefly: Gel-based competitive ABPP of living PC3 cells, in situ treatment. More on the design: PC3 cancer cells, which have high endogenous KIAA1363 levels; endogenous in cells; host or cells: PC3. Format: cell-based. On the procedure:
Inhibitors were dissolved in DMSO and diluted into media or buffer prior to cell or proteome treatment, respectively. For in vitro treatment, final DMSO concentration was 4%. For in situ treatments of cells for ABPP, lipid measurements, migration, cell-survival, and invasion assays, 2×10^6 cells were seeded in 6 cm dishes (˜100% confluency) 24 h prior to inhibitor pre-treatment (in DMSO at 0.1% final concentration) in serum-free media (3 mL) for the designated time before harvesting cells for ABPP or lipid measurements or before the initiation of migration, cell-survival, and invasion assays.
as §1
JW576 was dissolved in DMSO and diluted into media or buffer prior to cell or proteome treatment, respectively. For in vitro treatment, final DMSO concentration was 4%. For in situ treatments of cells for ABPP, 2×10^6 cells were seeded in 6 cm dishes (100% confluency) 24 hr prior to JW576 pretreatment with or without JW480 (in DMSO at 0.1% final concentration) in serum-free media (3 ml) for the designated time before harvesting cells for ABPP.
(§2) For ABPP experiments, cell lysate and tissue proteomes were treated with 1 μM FP-rhodamine for 30 min at room temperature ([…]). Reactions were quenched with one volume of standard 4×SDS/PAGE loading buffer (reducing), separated by SDS/PAGE (10% acrylamide), and visualized in-gel with a Hitachi FMBio IIe flatbed fluorescence scanner (MiraiBio). For experiments involving a preincubation with JW576 in the presence or absence of the non-fluorescent competitor JW480, the reactions were prepared without FP-rhodamine. JW576 were added at the indicated concentration and incubated for the indicated time at 37° C. FP-rhodamine was then added and the reaction was carried out exactly as described above.

Assay [6] has as its target T2, KIAA1363. Put plainly: In vivo labeling of KIAA1363 by JW576 in mouse heart (gel-based ABPP). The procedure:
as §2
Tissues were dounce-homogenized in PBS, pH 7.5, followed by a low-speed spin (1,400 g, 5 min) to remove debris. The supernatant was then subjected to centrifugation (64,000 g, 45 min) to provide the cytosolic fraction in the supernatant and the membrane fraction as a pellet. The pellet was washed and resuspended in PBS buffer by sonication. Total protein concentration in each fraction was determined using a protein assay kit (Bio-Rad). Samples were stored at −80° C. until use.
JW576 was prepared as a homogenoeus PEG solution by vortexing, sonicating, and gently heating neat compound directly into PEG300 (Fluka) (4 mg ml^−1 final concentration. Male C57BI/6J (<6 months old, 20-28 g) and Male KIAA1363-KO mice were treated with JW576 or a PEG vehicle by intraperitoneal injection. After the indicated amount of time, mice were anesthetized with isoflurane and killed by decapitation. Tissues were removed, flash frozen in liquid N2 and stored at −80° C. prior to processing for ABPP gel analysis as indicated above. Animal experiments were conducted in accordance with the guidelines of the institutional Animal Care and Use Committee of The Scripps Research Institute.

Assay [7] deals with T4, KIAA1363. Put plainly: 2-acetyl MAGE hydrolytic activity assay in cancer cells treated in situ. The assay is classed as cell-based. Further details: PC3 cancer cells, which have high endogenous KIAA1363 levels; endogenous in cells; host or cells: PC3 (2-acetyl MAGE assay also DU145 and SKOV3).
Method: Cells were pretreated with KIAA1363 inhibitors in situ (for 4 hr in serum-free F-12K media before harvesting cells by scraping) or in vitro (for 30 min at 37° C. in PBS) before addition of 2-acetyl MAGE (100 μM) to cell lysates at room temperature for 30 min in a volume of 200 μL. Reactions were quenched with 600 μL 2:1 chloroform:methanol and 10 nmol of C12:0 MAGE internal standard was added. The organic layer was extracted and 30 μL injected into an Agilent 1100-MSD LC-MS. LC-MS settings were as previously described (Chiang et al., 2006). Product levels (C16:0 MAGE) were quantified in relation to the internal standard. Specific activity was determined during the linear phase of enzymatic reactions (i.e., less than 20% substrate utilized).
Cell lysates (20 μg) in Tris buffer were then incubated with lipid (100 mM, e.g., 2-acetyl MAGE for KIAA1363 activity) at room temperature for 30 min in a volume of 200 ml. Reactions were quenched with 600 ml 2:1 chloroform:methanol and 10 nmol of C12:0 MAGE internal standard was added. […] Product levels (C16:0 MAGE for KIAA1363 activity) were quantified in relation to internal standard levels and standard curves generated between varying lipid concentration versus constant internal standard levels. Specific activity was determined during the linear phase of enzymatic reactions (i.e., less than 20% substrate utilized)

Read-outs that look alike come from different tables or passages of the source.

With `Cc1ccc2ccccc2c1OC(=O)NCCc1ccc2ccccc2c1` [JW440, 2-methylnaphthalen-1-yl (2-(naphthalen-2-yl)ethyl)carbamate], in assay [1], the “Cross-reactivity with AChE” value is listed as “little or no activity”. Also, the IC50 is 437 nM in assay [2] (mouse brain membrane proteome, inhibitor 30 min before FP-rhodamine (1 μM, 30 min), averages of three replicates, read-out: IC50 (KIAA1363)) and less than 1000 nM in assay [2] (screened against KIAA1363, Table 1, read-out: IC50 values of less than 1 micromolar). Besides, in assay [3], the “Cross-reactivity with HSL” value is “little or no activity”.

Consider `CC(C)c1ccccc1OC(=O)NCCOc1ccc2c(C(F)(F)F)cc(=O)oc2c1` [JW551, 2-isopropylphenyl (2-((2-oxo-4-(trifluoromethyl)-2H-chromen-7-yl)oxy)ethyl)carbamate], for which the “IC50 for inhibition of FP-rhodamine labeling of KIAA1363” value in assay [4] is recorded as “low micromolar”.

For the compound `CC1=CC(C)=[N+]2C1=Cc1ccc(CCC(=O)NCCNC(=O)Oc3ccccc3C(C)C)n1[B-]2(F)F` [JW576, 5,5-difluoro-7-(3-((2-(((2-isopropylphenoxy)carbonyl)amino)ethyl)amino)-3-oxopropyl)-1,3-dimethyl-5H-dipyrrolo[1,2-c:2′,1′-f][1,3,2]diazaborinin-4-ium-5-uide], the IC50 is 340 ± 150 nM in assay [5] and 150 to 170 nM in assay [7]. Further, the “Time to near-complete target modification” value in assay [5] (JW576 1 μM, living PC3 cells) was “within an hour”. For the same compound, the “Concentration at which other JW576-protein adducts were observed (trace levels)” value in assay [5] (PC3 cells in situ, BODIPY fluorescence scan) was not below 5 µM. Further, the “Labeling of KIAA1363 in heart” value in assay [6] (C57BI/6J mice, 5-40 mg/kg, i.p., 4 hr) is listed as “significant labeling”. The “Time to near-maximal in vivo labeling signals” value in assay [6] (JW576 10 mg/kg, post-dosing) is reported as not above 30 min. For the same compound, the “KIAA1363 activity in heart by competitive ABPP with FP-Rh” value in assay [6] (WT mice, JW576 10 mg/kg, 1 hr) was “substantial reductions”. For the same compound, the “Selectivity for KIAA1363 in vivo (heart proteome)” value in assay [6] (additional 70 kDa protein, likely ES1) is “only a single, faint additional probe target”.
